Reference: US6720346B2, “Thiazole benzamide derivatives and pharmaceutical compositions for inhibiting cell proliferation” (Agouron Pharmaceuticals, Inc., priority 2001, dated 2004)

Experiments:
[1] = tested on: HCT-116 cell line; assay: Inhibition of cell growth, MTT tetrazolium salt assay; type: cell-based; settings: for IC50: Homo sapiens, HCT-116, 120 h, MTT, three to five days
Method: Inhibition of cell growth was measured using the tetrazolium salt assay, which is based on the ability of viable cells to reduce 3-(4,5-dimethylthiazol-2-yl)-2,5-[2H]-diphenyltetrazolium bromide (MTT) to formazan (Mossman, Journal of Immunological Methods, 65, (1983), pp. 55-58). The water-insoluble purple formazan product was then detected spectrophotometrically. The HCT-116 cell line was used as a representative cancer cell line and grown in 96-well plates. Cells were plated in McCoy's 5A Medium at a volume of 135 μl/well. Plates were incubated for four hours before addition of inhibitor compounds. Different concentrations of inhibitor compounds were added in 0.5% (v/v) dimethylsulfoxide (15 μL/well), and cells were incubated at 37° C. (5% CO2) for three to five days. At the end of the incubation, MTT was added to a final concentration of 0.2 mg/mL, and cells were incubated for 4 hours more at 37° C. After centrifugation of the plates and removal of medium, the absorbance of the formazan (solubilized in dimethylsulfoxide) was measured at 540 nm. The concentration of inhibitor compound causing 50% (IC50) or 90% ([…]) inhibition of growth was determined from the linear portion of a semi-log plot of inhibitor concentration versus percent inhibition. All results were compared to control cells treated only with 0.5% (v/v) dimethylsulfoxide.

[2] = biological target: T1, CDK2/cyclin A (Homo sapiens, UniProt P24941); assay: Inhibition of CDK2/cyclin A retinoblastoma kinase activity (Ki; % inhibition); type: biochemical; settings: for Ki: apparent Ki, CDK2/cyclin A, Rb substrate
T1 construct: made in house; host or cells: CDK2: insect cells (baculovirus); cyclin A: E. coli
Method: (§1) Cyclin-dependent kinase activity was measured by quantifying the enzyme-catalyzed, time-dependent incorporation of radioactive phosphate from [^32P]ATP or [^33P]ATP into a protein substrate. Unless noted otherwise, assays were performed in 96-well plates in a total volume of 50 μL, in the presence of 10 mM HEPES (N-[2-hydroxyethyl]piperazine-N′-[2-ethanesulfonic acid]) (pH 7.4), 10 mM MgCl2, 25 μM adenosine triphosphate (ATP), 1 mg/mL ovalbumin, 5 μg/mL leupeptin, 1 mM dithiothreitol, 10 mM β-glycerophosphate, 0.1 mM sodium vanadate, 1 mM sodium fluoride, 2.5 mM ethylene glycol-bis(β-aminoethyl ether)-N,N,N′N′-tetraacetic acid (EGTA), 2% (v/v) dimethylsulfoxide, and 0.03-0.4 μCi [^32/33P]ATP per reaction. Reactions were initiated with enzyme, incubated at 30° C., and terminated after 20 minutes by the addition of ethylenediaminetetraacetic acid (EDTA) to 250 mM. The phosphorylated substrate was then captured on a nitrocellulose or phosphocellulose membrane using a 96-well filtration manifold, and unincorporated radioactivity was removed by repeated washing with 0.85% phosphoric acid. Radioactivity was quantified by exposing the dried membranes to a phosphorimager.
(§2) Compounds from combinatorial libraries were screened from 96-well plates for % inhibition of CDK activity at 30 nM theoretical compound concentration. Inhibition was measured relative to control wells that contained all reaction components including 2% (v/v) DMSO but no compound, after subtraction of background radioactivity measured in the absence of enzyme. Apparent Ki values of discrete compounds were measured by assaying enzyme activity in the presence of different inhibitor compound concentrations and subtracting the background radioactivity measured in the absence of enzyme. The kinetic parameters (kcat, Km for ATP) were measured for each enzyme under the usual assay conditions by determining the dependence of initial rates on ATP concentration. Inhibition data were fit to an equation for competitive inhibition using Kaleidagraph (Synergy Software), or were fit to an equation for competitive tight-binding inhibition using the software KineTic (BioKin, Ltd.).
CDK2 was purified using published methodology (Rosenblatt et al., “Purification and Crystallization of Human Cyclin-dependent Kinase 2,” J. Mol. Biol., 230, 1993, pp. 1317-1319) from insect cells that had been infected with a baculovirus expression vector. […] A complex of CDK2 and proteolyzed cyclin A was prepared and purified by gel filtration. The substrate for this assay was the same Rb substrate fragment used for the CDK4 assays, and the methodology of the CDK2/delta cyclin A and the CDK4/delta cyclin D3 assays was essentially the same, except that CDK2 was present at 10 nM or 19 nM. The duration of the assay was 60 or 75 minutes, during which the time-dependence of product formation was linear and initial rate conditions were met.

[3] = biological target: T2, human CDK4/cyclin D3 (Homo sapiens, UniProt P11802); assay: Inhibition of CDK4/cyclin D retinoblastoma kinase activity (Ki; % inhibition); type: biochemical; settings: for Ki: apparent Ki, CDK4/cyclin D3, Rb substrate
T2 construct: made in house; host or cells: insect cells co-infected with baculovirus vectors
T2 sequence (P11802 whole entry): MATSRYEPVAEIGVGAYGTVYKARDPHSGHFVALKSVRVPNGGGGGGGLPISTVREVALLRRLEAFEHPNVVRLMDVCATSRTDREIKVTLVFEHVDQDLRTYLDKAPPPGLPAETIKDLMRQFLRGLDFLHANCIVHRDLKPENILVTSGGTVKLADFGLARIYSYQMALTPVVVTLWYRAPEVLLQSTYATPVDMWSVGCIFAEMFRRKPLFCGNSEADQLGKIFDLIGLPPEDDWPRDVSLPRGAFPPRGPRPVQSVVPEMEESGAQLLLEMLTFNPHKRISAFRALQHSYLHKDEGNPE
T2 sequence (P30281 1-264 partner limits assumed): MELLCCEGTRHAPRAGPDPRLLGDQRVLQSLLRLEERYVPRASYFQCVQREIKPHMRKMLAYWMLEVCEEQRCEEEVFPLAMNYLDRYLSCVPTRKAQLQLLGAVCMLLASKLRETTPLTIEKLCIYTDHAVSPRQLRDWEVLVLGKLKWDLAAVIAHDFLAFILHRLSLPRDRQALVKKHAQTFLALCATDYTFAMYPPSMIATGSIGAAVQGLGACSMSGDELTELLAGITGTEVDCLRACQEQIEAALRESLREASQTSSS
Method: as §1, §2
A complex of human CDK4 and genetically truncated (1-264) cyclin D3 was purified using traditional biochemical chromatographic techniques from insect cells that had been co-infected with the corresponding baculovirus expression vectors (see e.g., Meijer and Kim, “Chemical Inhibitors of Cyclin-Dependent Kinases,” Methods in Enzymol., 283 (1997), pp. 113-128.). The enzyme complex (5 nM) was assayed with 0.3-0.5 μg of purified recombinant retinoblastoma protein fragment (Rb) as a substrate. The engineered Rb fragment (residues 386-928 of the native retinoblastoma protein; 62.3 kDa) contains the majority of the phosphorylation sites found in the native 106-kDa protein, as well as a tag of six histidine residues for ease of purification. Phosphorylated Rb substrate was captured by microfiltration on a nitrocellulose membrane and quantified using a phosphorimager as described above. For measurement of tight-binding inhibitors, the assay duration was extended to 60 minutes, during which the time-dependence of product formation was linear and initial rate conditions were met.

[4] = HCT-116 cells, 0.25 μM compound

Structure (SMILES)	CDK2 % Inhibition at 0.03 μM ([2]; at 0.03 μM) [%]	CDK4 % Inhibition at 0.03 μM ([3]; at 0.03 μM) [%]	HCT-116 % Inhibition at 0.25 μM ([1]; HCT-116, at 0.25 μM) [%]	IC50 [1] [nM]	Ki [2] [nM]	Ki [3] [nM]	other results
Nc1nc(Nc2ccc(C(=O)NC(CO)c3ccccc3)cc2)sc1C(=O)c1c(F)cccc1F (centres unmarked) [Example G155]	32	38	–	–	–	–	HCT-116 % Inhibition at 0.1 μM ([1]; HCT-116, at 0.1 μM): 0%; HCT-116 % Inhibition at 0.25 μM ([1]; HCT-116, at 0.25 μM, 0.25 µM): 67%
CN(C)CCCN(C)C(=O)c1ccc(Nc2nc(N)c(C(=O)c3c(F)cccc3F)s2)cc1 [Example G64]	5	17	57	–	–	–	–
Nc1nc(Nc2ccc(C(=O)NC3CCN(Cc4ccccc4)CC3)cc2)sc1C(=O)c1c(F)cccc1F [Example G178]	20	54	83	–	–	–	HCT-116 % Inhibition at 0.1 μM ([1]; HCT-116, at 0.1 μM): 43%
CCOc1cccc(NC(=O)c2ccc(Nc3nc(N)c(C(=O)c4c(F)cccc4F)s3)cc2)c1 [Example G16]	−7	1	50	–	–	–	–
CC(C)(CNC(=O)c1ccc(Nc2nc(N)c(C(=O)c3c(F)cccc3F)s2)cc1)N1CCCCC1 [Example A52, 4-[4-Amino-5-(2,6-difluoro-benzoyl)-thiazol-2-ylamino]-N-(2-methyl-2-piperidin-1-yl-propyl)-benzamide]	–	–	–	130	170	9	–
CCOC(=O)c1ccccc1NC(=O)c1ccc(Nc2nc(N)c(C(=O)c3c(F)cccc3F)s2)cc1 [Example G46]	4	11	58	–	–	–	–
CN(C)CCNC(=O)c1ccc(Nc2nc(N)c(C(=O)c3c(F)cccc3F)s2)cc1Cl [C]	–	–	–	210	170	27	–
CCCCCNC(=O)c1ccc(Nc2nc(N)c(C(=O)c3c(F)cccc3F)s2)cc1 [Example G200]	–	–	–	–	–	–	HCT-116 % Inhibition at 0.1 μM ([1]; HCT-116 cells, 0.1 μM compound): 19%; HCT-116 % Inhibition at 0.25 μM [1, 4]: 50%; CDK2 % Inhibition at 0.03 μM ([2]; 0.03 μM compound): 15%; CDK4 % Inhibition at 0.03 μM ([3]; 0.03 μM compound): 23%
C[C@@H]1CCC[C@H](C)N1CCNC(=O)c1ccc(Nc2nc(N)c(C(=O)c3c(F)cccc3F)s2)cc1 [Example A51]	–	–	–	90	110	7	–
CC[C@H](NC(=O)c1ccc(Nc2nc(N)c(C(=O)c3c(F)cccc3F)s2)cc1)c1ccccc1 [Example G214]	–	–	–	–	–	–	HCT-116 % Inhibition at 0.1 μM ([1]; HCT-116 cells, 0.1 μM compound): 15%; HCT-116 % Inhibition at 0.25 μM [1, 4]: 52%; CDK2 % Inhibition at 0.03 μM ([2]; 0.03 μM compound): 11%; CDK4 % Inhibition at 0.03 μM ([3]; 0.03 μM compound): 16%
CC(C)[C@H](CN(C)C)NC(=O)c1ccc(Nc2nc(N)c(C(=O)c3c(F)cccc3F)s2)cc1 [Example A47, 4-[4-Amino-5-(2,6-difluoro-benzoyl)-thiazol-2-ylamino]-N-(1R-dimethylaminomethyl-2-methyl-propyl)-benzamide]	–	–	–	580	55	5	–
Nc1nc(Nc2ccc(C(=O)NCC(O)c3ccccc3)cc2)sc1C(=O)c1c(F)cccc1F (centres unmarked) [Example G391]	–	–	–	–	–	–	HCT-116 % Inhibition at 0.1 μM ([1]; HCT-116 cells, 0.1 μM compound): 11%; HCT-116 % Inhibition at 0.25 μM [1, 4]: 50%; CDK2 % Inhibition at 0.03 μM ([2]; 0.03 μM compound): 1%; CDK4 % Inhibition at 0.03 μM ([3]; 0.03 μM compound): −7%
